Activity calls are given as the source filed them. The calls are words filed in the database; no cut-off is given here.
Tests used:
[1] = system: Escherichia coli; assay: Antibacterial activity against Escherichia coli UTI89 assessed as inhibition of biofilm formation at 200 uM after 24 hrs; format: functional; settings: for inhibition at 200 µM: UTI89, 24 h
[2] = system: Escherichia coli; assay: Antibacterial activity against Escherichia coli UTI89 assessed as number of wells with agglutination by hemagglutinination assay in presence of 500 uM pilicide; format: functional
[3] = system: Escherichia coli; assay: Antibacterial activity against Escherichia coli UTI89 assessed as inhibition of biofilm formation after 24 hrs; format: functional, organism-based; settings: UTI89, 24 h
[4] = system: HeLa; assay: Cytotoxicity against human HeLa cells after 24 hrs by calcein AM based spectrophotometric analysis; format: cell-based

SMILES	inhibition at 200 µM [1] [%]	Activity [2]	EC50 [3] [µM]	Activity [4]	inhibition [1]
O=C(O)[C@@H]1CSc2c(C3CC3)c(Cc3cccc4ccccc34)cc(=O)n21	54	7	189	Non-toxic	–
O=C(O)[C@@H]1CSc2c(-c3cccc(C(F)(F)F)c3)c(CNS(=O)(=O)c3ccccc3)cc(=O)n21	48	–	–	–	–
O=C(O)[C@@H]1CSc2c(C3CC3)c(CNS(=O)(=O)c3cccc4ccccc34)cc(=O)n21	–	–	–	–	inactive
COc1ccc2cc(Cc3cc(=O)n4c(c3C3CC3)SC[C@H]4C(=O)O)ccc2c1	–	–	–	–	inactive
O=C(O)[C@@H]1CSc2c(-c3cccc(C(F)(F)F)c3)c(Cc3cccc(OCc4ccc(F)cc4)c3)cc(=O)n21	75	–	3	Non-toxic	–
O=C(O)[C@@H]1CSc2c(-c3cccc(C(F)(F)F)c3)c(CNS(=O)(=O)c3cccc4ccccc34)cc(=O)n21	91	–	38	Non-toxic	–
O=C(NCc1cc(=O)n2c(c1-c1cccc(C(F)(F)F)c1)SC[C@H]2C(=O)O)c1ccccc1	–	–	–	–	inactive
O=C(O)[C@@H]1CSc2c(C3CC3)c(COc3cccc4ccccc34)cc(=O)n21	96	5.5	32	Non-toxic	–
O=C(O)[C@@H]1CSc2c(-c3cccc(C(F)(F)F)c3)c(CN3CCCCC3)cc(=O)n21	30	–	–	–	–
O=C(O)[C@@H]1CSc2c(C3CC3)c(CN3CCOCC3)cc(=O)n21	–	–	–	–	inactive
O=C(O)[C@@H]1CSc2c(-c3cccc(C(F)(F)F)c3)c(Cc3ccc4[nH]ccc4c3)cc(=O)n21	97	5	30	Non-toxic	–
O=C(NCc1cc(=O)n2c(c1-c1cccc(C(F)(F)F)c1)SC[C@H]2C(=O)O)c1cccc2ccccc12	65	–	130	–	–
O=C(O)[C@@H]1CSc2c(C3CC3)c(CNS(=O)(=O)c3ccccc3)cc(=O)n21	–	–	–	–	inactive
O=C(O)[C@@H]1CSc2c(-c3cccc(C(F)(F)F)c3)c(CN3CCOCC3)cc(=O)n21	–	–	–	–	inactive
COc1ccc2cc(Cc3cc(=O)n4c(c3-c3cccc(C(F)(F)F)c3)SC[C@H]4C(=O)O)ccc2c1	93	5.5	9	Non-toxic	–
O=C(O)[C@@H]1CSc2c(-c3cccc(C(F)(F)F)c3)c(Cc3cccc4ccccc34)cc(=O)n21	92	5	17	Non-toxic	–
O=C(O)[C@@H]1CSc2c(-c3cccc(C(F)(F)F)c3)c(CN3CCc4ccccc4C3)cc(=O)n21	84	–	130	–	–
O=C(NCc1cc(=O)n2c(c1C1CC1)SC[C@H]2C(=O)O)c1ccccc1	–	–	–	–	inactive
O=C(O)[C@@H]1CSc2c(C3CC3)c(CN3CCc4ccccc4C3)cc(=O)n21	–	–	–	–	inactive
O=C(O)[C@@H]1CSc2c(C3CC3)c(Cc3cccc(OCc4ccc(F)cc4)c3)cc(=O)n21	76	–	43	Non-toxic	–
O=C(O)[C@@H]1CSc2c(C3CC3)c(CN3CCCCC3)cc(=O)n21	–	–	–	–	inactive
O=C(O)[C@@H]1CSc2c(C3CC3)c(Cc3ccc4[nH]ccc4c3)cc(=O)n21	37	–	–	–	–
O=C(NCc1cc(=O)n2c(c1C1CC1)SC[C@H]2C(=O)O)c1cccc2ccccc12	–	–	–	–	inactive
O=C(O)[C@@H]1CSc2c(-c3cccc(C(F)(F)F)c3)c(COc3cccc4ccccc34)cc(=O)n21	72	5	37	Non-toxic	–
O=C(O)[C@@H]1CSc2c(C3CC3)c(COc3ccccc3)cc(=O)n21	43	–	–	–	–
O=C(O)[C@@H]1CSc2c(-c3cccc(C(F)(F)F)c3)c(COc3ccccc3)cc(=O)n21	80	–	21	Non-toxic	–

From ChEMBL document CHEMBL1759904, “Synthesis and application of a bromomethyl substituted scaffold to be used for efficient optimization of anti-virulence activity” (Eur J Med Chem, 2011)
